Laboratory results as given in patent US5369111A, “Modulator agent and use thereof” (University of Vermont, priority 1992, dated 1994).
Entries after “also recorded” stand apart in the source; their conditions may differ. Like-named read-outs stand apart in the source and are kept apart here.

Assays:
[1] = system: S180 MDR cell strains A3 and A10; assay: Modulation of acquired drug resistance in the S180 MDR cell strains A3 and A10; assay type: cell-based, murine; details: A3 and A10
Method: (§1) Mid-exponential cultures were used for all assays. The RCC-2 and RCC-5 cell lines were seeded into 24-well plates at 2×10^4 cells/well and allowed to attach to the substratum for 16-18 h prior to treatment. The S180 cell lines were seeded into culture tubes at 1×10^5 cells/ml and treated immediately. Cytotoxicity was determined by quantitation of population growth after 72 h incubation by electronic particle counter (Coulter Electronics, Hialeah, Fla.). The human tumor cell lines were used in a clonogenic assay for cytotoxicity. Cells were seeded at 300 cells/dish, incubated overnight and then treated. Colonies were scored 7-11 days later. In all assays of analog modulation of drug sensitivity, the analog was added minutes prior to the addition of cytotoxic drug.
(§2) To evaluate the ability of vindoline and the two diastereoisomeric VBL analogs to modulate the MDR phenotype (acquired resistance) of the A3 and A10 cell stains, we determined the concentration of compound required to restore drug sensitivities to parental levels. This was done by exposing the MDR cell line to a concentration range of modulator in the presence VBL, VCR and ADM at the respective IC70s of the parental cell line. The cytotoxicity curves for A3 and A10 cells, shown in FIG. 5, are distinctive among the three vinca alkaloids examined. In each cell line, there was a minimum concentration of modulator that elicited 70% growth inhibition for each drug - i.e. the reversing concentration.
FIG. 5 represents the modulation of multidrug resistance in the MDR cell strains by the vinca alkaloids. Vindoline (A), vincovaline (B), or the analog C-20'-deoxy vincovaline (C) was added, at various concentrations, to A3 (closed symbols) or A10 (opened symbols) cell cultures containing the parental IC70 of each drug: 2.0×10^-7 M. ADM (circles: 1.5×10^-8 M VBL (triangles); and 4.5×10^-8 M; VCR (squares). Population growth was determined 72 hours later.
FIG. 6 represents the relationship between cellular drug resistance level and the minimal modulator concentration required for complete reversal of drug resistance. The drugs examined were ADM (o), VBL (Δ), and VCR (.quadrature.). The amount (concentration) of modulator, necessary to reverse each level of drug resistance contained in the A3 and A10 cell lines, was determined from data such as those of FIG. 5. The values presented were averaged from duplicate samples of two separate experiments, S.D.<15% of the mean. The arrows denote the non-toxic concentration limit for the modulator; in the case of Vincovaline this value is dependent on the MDR cell strain, 2×10^-5 M, A3; 5×10^-5 M. A10.
FIG. 11 represents the modulation of multidrug resistance in the S180 MDR cell strains A3 and A10. The cellular drug resistance level is plotted against the minimal concentration of C-20'-deoxy deethyl vincovaline required for the complete reversal of drug resistance to ADM (o), VBL (Δ), and VCR (.quadrature.). In the case of high level ADM resistance […], the sensitivity of the cells was restored to 80% of the parental value. The arrow denotes the non-toxic concentration limit of the analog.

[2] = Inhibition of population growth (cytotoxicity), MDR strain S180/A3; assay type: cell-based, mouse; details: mouse, s180/a3 cells; read-out: non-toxic concentration limit for the modulator
Source text: (§3) The analogs were examined in a panel of tumor cell lines of both intrinsic and acquired drug resistance, as described in Table 1. The rat colon adenocarcinoma cell lines RCC-2 and RCC-5 (ref. 13) were maintained in Ham's F12 medium supplemented with 5% heat-inactivated, fetal bovine serum (Sterile Systems. Hyclone, Logan, Utah). The two rat colon cancer cell lines differ in their degree of cellular differentiation; whereas the RCC-2 cell line is undifferentiated, the RCC-5 cell line is highly mucinous. The human epidermoid carcinoma cell line KB-3-1 and its MDR variant KB-Vl, selected by VBL treatment (ref. 14; courtesy of M. Gottesman. National Cancer Institute), was maintained in DMEM medium supplemented with 10%, heat-inactivated, fetal bovine serum. The murine sarcoma cell line […] and its MDR strains A3 and A10 selected by ADM treatment (ref. 15; courtesy of T. Tritton, Dept. Pharmacology, Univ. Vermont). were maintained in DMEM medium supplemented with 10% heat-inactivated, horse serum (Hazelton Biolog. Lenexa, Kans.). Stock cultures were subcultured twice weekly upon reaching the late exponential phase of population growth: population doubling times were 18-24 h. Antibiotics were not used in stock or experimental cultures. The MDR cell strains were grown in drug-free media for 48 h prior to experimental use.
as §1

S180 cells, parental = assay: Modulation of intrinsic drug resistance, parental S180; assay type: cell-based, murine; details: for modulation of sensitivity of parental S180 cells to VBL, VCR and ADM (in words): all three drugs; for effect on VBL toxicity in parental S180 cells (in words): 50-fold concentration range
Method: as §1
The ability of the compounds to modulate drug sensitivity in parental cells was studied over a range of concentrations of each compound, from 10^-6 M to the non-toxic (IC10-20) or solubility limit. […] From such experiments, we determined a sensitivity index derived from the IC50 of the drug without modulator treatment divided by the drug IC50 at each concentration of modulator.
When the sensitivity index for each drug, VBL, VCR and ADM is plotted versus the modulator concentration (FIG. 4), we can compare the relative potencies of the compounds as modulators of drug toxicity to the parental S180 cells.
*calculated as the IC50 of the drug alone divided by the IC50 o
the [drug modulator] combination. Data are presented from tretments with
FIG. 4 represents the potency of the vinca alkaloid compounds as modulators of drug sensitivity in S180 cells. The enhancement of sensitivity was calculated as the sensitivity index=IC50 of the drug alone divided by the IC50 of the drug+modulator. The IC50s for ADM (o) VBL (Δ), or VCR (.quadrature.) were determined over a concentration range of each modulator from data such as those depicted in FIG. 3. The values presented were averaged from duplicate samples of two separate experiments, S.D. <15% of the mean.

[3] = Inhibition of population growth (cytotoxicity), MDR strain S180/A10; assay type: cell-based, mouse; details: mouse, s180/a10 cells; read-out: non-toxic concentration limit for the modulator
Source text: as §3, §1

S180/A10 cells = assay: Modulator potency in MDR cells: reversal of acquired resistance, S180/A10; assay type: cell-based, murine; details: A10 cells, 90 fold ADM resistance
Method: as §1, §2
*The minimal concentration of modulator required to restore the drug
sensitivity of S180/MDR cell strains to that of parental S180 cells. Data
are the averages of 2-3 separate experiments, S.D. ≤20%.

[4] = system: S180 cell system (S180, A3, A10); assay: Inherent cytotoxicity in the S180 cell system (S180, A3, A10); assay type: cell-based, murine; details: for IC50: Mus musculus; for inherent cytotoxicity / resistance profile (in words): S180, A3, A10
Source text: as §3, §1
FIG. 2 represents the toxicity of the vinca alkaloid compounds to population growth. Vindoline, vincovaline or the analog, C-20'-deoxy vincovaline was added, at various concentrations, to S180 (.cndot.), A3 (o), or A10 (Δ) cell cultures. The population cell number was determined 72 hours later.

RCC-2 and RCC-5 cells = assay: Modulation of intrinsic drug resistance, RCC-2 and RCC-5; assay type: cell-based, rat; details: at the non-toxic concentration limit of 1-2 μM
Method: as §1

[5] = Inhibition of population growth of rat colon cancer cell lines RCC-2 and RCC-5; assay type: cell-based; details: rat, rcc-2 and rcc-5 cells; read-out: non-toxic concentration limit
Source text: The analogs were examined in a panel of tumor cell lines of both intrinsic and acquired drug resistance, as described in Table 1. The rat colon adenocarcinoma cell lines RCC-2 and RCC-5 (ref. 13) were maintained in Ham's F12 medium supplemented with 5% heat-inactivated, fetal bovine serum (Sterile Systems. Hyclone, Logan, Utah). The two rat colon cancer cell lines differ in their degree of cellular differentiation; whereas the RCC-2 cell line is undifferentiated, the RCC-5 cell line is highly mucinous. The human epidermoid carcinoma cell line KB-3-1 and its MDR variant KB-Vl, selected by VBL treatment (ref. 14; courtesy of M. Gottesman. National Cancer Institute), was maintained in DMEM medium supplemented with 10%, heat-inactivated, fetal bovine serum. […]
Mid-exponential cultures were used for all assays. […] Cytotoxicity was determined by quantitation of population growth after 72 h incubation by electronic particle counter (Coulter Electronics, Hialeah, Fla.). […] Colonies were scored 7-11 days later. […]
FIG. 7 represents the toxicity of analog C-20'-deoxy vincovaline (A) and C-20'-deoxy deethyl vincovaline (B) to population growth of the rat colon adenocarcinoma cell lines. The congener was added at various concentrations to RCC-2 (.cndot.) and RCC-5 (Δ) cell cultures and the population cell number was determined 72 hours later. […]

[6] = listed as C-20'-deoxy Vincovaline

| Compound | modulation of cellular resistance to VBL, VCR and ADM in MDR cell strains (in words) [1] | modulation of cellular resistance to VBL, VCR and ADM in MDR cell strains (in words) ([1]; listed as C-14', 16', 20'-epi-VBL) | MNTC at 72 h [2] [µM] | modulation of sensitivity of parental S180 cells to VBL, VCR and ADM (in words) (S180 cells, parental) | modulation of sensitivity of parental S180 cells to VBL, VCR and ADM (in words) (S180 cells, parental; listed as Vincovaline) | MNTC at 72 h [3] [µM] | reversal of high level ADM resistance (in words) (S180/A10 cells) | IC50 ([4]; S-180, S180 parental and MDR cell lines, read-out: IC50 (inhibition of cell growth)) [µM] | inherent cytotoxicity / resistance profile (in words) [4] | modulation of cellular resistance to VBL, VCR and ADM in MDR cell strains (in words) ([1]; 16', 20'-epi-VBL) | sensitization to VBL, VCR and ADM (RCC-2 and RCC-5 cells) | MNTC at 72 h [5] [nM] | effect on VBL toxicity in parental S180 cells (in words) (S180 cells, parental) | effect on VBL toxicity in parental S180 cells (in words) (S180 cells, parental; [6]) | modulation of VCR and ADM cytotoxicity in parental S180 cells (in words) (S180 cells, parental) | modulation of VCR and ADM cytotoxicity in parental S180 cells (in words) (S180 cells, parental; [6]) | modulation of VCR and ADM cytotoxicity in parental S180 cells (in words) (S180 cells, parental; listed as C-29'-deoxy vincovaline) | IC50 ([4]; S-180, read-out: IC50 (inhibition of cell growth)) [µM] | inherent cytotoxicity / resistance profile (in words) ([4]; 16', 20'-epi-VBL) | non-toxic concentration limit (in words) ([4]; S180 cell system) |
| --- | --- | --- | --- | --- | --- | --- | --- | --- | --- | --- | --- | --- | --- | --- | --- | --- | --- | --- | --- | --- |
| CC[C@@]1(O)C[C@H]2CN(CCc3c([nH]c4ccccc34)[C@](C(=O)OC)(c3cc4c(cc3OC)N(C)[C@H]3[C@@](O)(C(=O)OC)[C@H](OC(C)=O)[C@]5(CC)C=CCN6CC[C@]43[C@@H]65)C2)C1 [vincovaline, C-14', 16', 20'-epi-VBL] | significant activity with MDR cells is coincident with its non-toxic concentration limit in each cell line | modulators of cellular resistance to VBL, VCR and ADM | 20 | sensitized the parental S180 cells to all three drugs | weak modulator of drug sensitivity; also recorded: poor modulator of drug sensitivity in the parental cell line | 50 | limited in this activity by their own cytoxicity in the MDR cell lines | > 10 | cross-resistance | – | – | – | – | – | – | – | – | – | – | – |
| CC[C@H]1C[C@H]2CN(CCc3c([nH]c4ccccc34)[C@](C(=O)OC)(c3cc4c(cc3OC)N(C)[C@H]3[C@@](O)(C(=O)OC)[C@H](OC(C)=O)[C@]5(CC)C=CCN6CC[C@]43[C@@H]65)C2)C1 [C-20'-deoxy vincovaline, C-20'-deoxy C-14', 16', 20'-epi-VBL] | reverses MDR in the A3 and A10 cell strains, without evidence of drug-specificity | – | – | – | – | – | reversing completely the high level ADM resistance (90 fold) | – | very weak cytotoxic agent | modulators of cellular resistance to VBL, VCR and ADM | 2- to 4 fold | 1000 to 2000 | no effect on cell sensitivity to VBL | no effect on VBL toxicity | progressive sensitization of the cells to the drug with increasing analog concentrations; also recorded: similar, concentration-dependent enhancement of VCR and ADM cytotoxicity; also recorded: sensitizes S180 cells to ADM and VCR but not to VBL | similar, concentration-dependent enhancement | most potent modulator of intrinsic resistance to ADM and VCR | > 10 | cross-resistance | beyond the limits of solubility |
